“And” between values parts separate entries of the source, which are not always exact repeats. Identical values can stand only once. Like-named read-outs stand apart in the source and are kept apart here.
Experiments:
[1] = system: cells; details: as compared to cells without the defective DNA; cited from earlier work
[2] = system: DNA of tumors and adjacent normal tissue; details: small series of patients with head and neck cancers or liver metastases from colorectal cancer; cited from earlier work
[3] = Pharmacokinetic profile of IUdR (20 mg/kg) with and without Tipiracil in rats following single oral administration; format: in vivo, male Sprague-Dawley rats; details: for Plasma Concentration of Compound A / concentration at 0.083 hr / concentration at 0.25 hr / concentration at 0.5 hr / concentration at 1 hr: PO-20 mg/kg Compound A alone or + 7.9 mg/kg Compound B; for concentration at 0.083 hr / concentration at 0.25 hr / concentration at 0.5 hr / concentration at 1 hr: oral; for AUC(0-t) / Cmax: po
Protocol: (§1) The purpose of this study was to determine the pharmacokinetics parameters of IUdR in male Sprague-Dawley rats following single oral (PO) administration the IUdR (i.e., Compound A) and Tipiracil (i.e., Compound B).
A control formulation was prepared where Compound A was dissolved in 5% DMSO+95% PBS to yield a final concentration of 2 mg/mL for oral administration. The prepared formulation was colorless clear solution (pH˜8).
A second formulation was prepared where Compound A and Compound B were dissolved in 5% DMSO+95% PBS to yield a final concentration of 2 mg/mL (Compound A) and 0.79 mg/mL (Compound B) for oral administration. The prepared formulation was colorless clear solution (pH˜7).
(§2) Animal Acquisition and Assignment to Study. A total of 8 male experimental Sprague-Dawley Rats were transferred from stock colony, and 6 animals were placed on study.
(§3) Dose Administration. The test article was administered via a single oral administration.
(§4) Sample Collection and Bioanalysis. Blood samples (approximately 200 μL/sample) were collected via jugular vein at Pre-dose and Post-dose (5 min, 15 min, 30 min, 1 h, 2 h, 4 h, 6 h, 8 h and 24 h). Blood samples were placed into tubes containing K2EDTA and centrifuged conditions at 8000 rpm for 6 minutes at 2-8° C. to separate plasma from the samples. Following centrifugation, the resulting plasma were transferred to clean tubes and stored frozen at −80° C. pending bioanalysis.
(§5) Pharmacokinetic Analysis. The PK analysis and interpretation of the results were conducted by Medicilon Preclinical Research (Shanghai) LLC. A non-compartmental module of WinNonlin® Professional was used to calculate parameters. Any BLQs (LLOQ=5.0 ng/mL for Compound A) were omitted when calculate the PK parameters.
(§6) Clinical Observations. No abnormal observations were noted.

[4] = Pharmacokinetic profile of IUdR (100 mg/kg) with and without Tipiracil in rats following single oral administration; format: in vivo, male Sprague-Dawley rats; details: PO-100 mg/kg Compound A alone or + 7.9 mg/kg Compound B, individual animals, LLOQ 10 ng/mL
Protocol: as §1
A control formulation was prepared where Compound A was dissolved in 5% DMSO+95% PBS to yield a final concentration of 10 mg/mL for oral administration. The prepared formulation was white suspension (pH˜7).
A second formulation was prepared where Compound A and Compound B were dissolved in 5% DMSO+95% PBS to yield a final concentration of 10 mg/mL (Compound A) and 0.79 mg/mL (Compound B) for oral administration. The prepared formulation was white suspension (pH˜7).
as §2, §3, §4
as §5, with “(LLOQ=10.0” for “(LLOQ=5.0”
as §6

[5] = single oral dose, PO-20 (Compound A) alone or + 7.9 (Compound B) mg/kg, individual animals

SMILES: O=c1[nH]c(=O)n([C@H]2C[C@H](O)[C@@H](CO)O2)cc1I [Compound A, 5-iodo-2′-deoxyuridine]
- increase in susceptibility of cells to the lethal effects of RT [1]: two-three fold
- % IUdR-DNA incorporation in adjacent normal tissue [2]: less than 1%
- % IUdR-DNA incorporation in tumors [2]: ≤ 5%
- Plasma Concentration of Compound A ([3]; 0.083 hr, individual animals, LLOQ 5 ng/mL): 25.16 ng/mL and 16.04 ng/mL
- Plasma Concentration of Compound A ([3]; 0.25 hr, individual animals, LLOQ 5 ng/mL): 54.67 ng/mL and 56.48 ng/mL
- Plasma Concentration of Compound A ([3]; 0.5 hr, individual animals, LLOQ 5 ng/mL): 63.23 ng/mL and 57.34 ng/mL
- Plasma Concentration of Compound A ([3]; 1 hr, individual animals, LLOQ 5 ng/mL): 19.19 ng/mL and 21.93 ng/mL
- Plasma Concentration of Compound A ([3]; 2 hr, individual animals, LLOQ 5 ng/mL): BLQ
- Plasma Concentration of Compound A ([3]; 4 hr, individual animals, LLOQ 5 ng/mL): BLQ
- Plasma Concentration of Compound A ([3]; 6 hr, individual animals, LLOQ 5 ng/mL): BLQ
- Plasma Concentration of Compound A ([3]; 8 hr, individual animals, LLOQ 5 ng/mL): BLQ
- Plasma Concentration of Compound A ([3]; 24 hr, individual animals, LLOQ 5 ng/mL): BLQ
- Tmax ([3]; male, Sprague-Dawley, rat, plasma, 20 mg/kg, single oral dose, PO-20 (Compound A) alone or + 7.9 (Compound B) mg/kg, individual animals): 30 min
- concentration at 0.083 hr ([3]; male, Sprague-Dawley, rat, plasma, 20 mg/kg, 0.083 hr, group mean, read-out: Plasma Concentration of Compound A, Mean): 21.9 ng/mL
- concentration at 0.083 hr ([3]; male, Sprague-Dawley, rat, plasma, 20 mg/kg, 0.083 hr, individual animals, LLOQ 5 ng/mL, read-out: Plasma Concentration of Compound A): 24.5 ng/mL
- concentration at 0.25 hr ([3]; male, Sprague-Dawley, rat, plasma, 20 mg/kg, 0.25 hr, group mean, read-out: Plasma Concentration of Compound A, Mean): 49.2 ng/mL
- concentration at 0.25 hr ([3]; male, Sprague-Dawley, rat, plasma, 20 mg/kg, 0.25 hr, individual animals, LLOQ 5 ng/mL, read-out: Plasma Concentration of Compound A): 36.5 ng/mL
- concentration at 0.5 hr ([3]; male, Sprague-Dawley, rat, plasma, 20 mg/kg, 0.5 hr, group mean, read-out: Plasma Concentration of Compound A, Mean): 57.7 ng/mL
- concentration at 0.5 hr ([3]; male, Sprague-Dawley, rat, plasma, 20 mg/kg, 0.5 hr, individual animals, LLOQ 5 ng/mL, read-out: Plasma Concentration of Compound A): 52.5 ng/mL
- concentration at 1 hr ([3]; male, Sprague-Dawley, rat, plasma, 20 mg/kg, 1 hr, group mean, read-out: Plasma Concentration of Compound A, Mean): 22.8 ng/mL
- concentration at 1 hr ([3]; male, Sprague-Dawley, rat, plasma, 20 mg/kg, 1 hr, individual animals, LLOQ 5 ng/mL, read-out: Plasma Concentration of Compound A): 27.2 ng/mL
- AUC(0-t) ([3]; male, Sprague-Dawley, rat, plasma, 20 mg/kg, oral administration, Example 2 (20 mg/kg IUdR, ± 7.9 mg/kg Tipiracil), comparison table, mean, read-out: AUC(0-t) of Compound A): 40.3 ng·h/mL
- Cmax ([3]; male, Sprague-Dawley, rat, plasma, 20 mg/kg, oral administration, Example 2 (20 mg/kg IUdR, ± 7.9 mg/kg Tipiracil), comparison table, mean, read-out: Cmax of Compound A): 57.7 ng/mL
- AUC(0-t) ([3]; male, Sprague-Dawley, rat, plasma, 20 mg/kg, single oral dose, PO-20 (Compound A) alone or + 7.9 (Compound B) mg/kg, group mean, read-out: AUC(0-t) of Compound A, Mean): 40.3 ng·h/mL
- Cmax ([3]; male, Sprague-Dawley, rat, plasma, 20 mg/kg, single oral dose, PO-20 (Compound A) alone or + 7.9 (Compound B) mg/kg, group mean, read-out: Cmax of Compound A, Mean): 57.7 ng/mL
- AUC(0-t) ([3]; male, Sprague-Dawley, rat, plasma, 20 mg/kg, single oral dose, PO-20 (Compound A) alone or + 7.9 (Compound B) mg/kg, individual animals, read-out: AUC(0-t) of Compound A): 40.8 ng·h/mL
- Cmax ([3]; male, Sprague-Dawley, rat, plasma, 20 mg/kg, single oral dose, PO-20 (Compound A) alone or + 7.9 (Compound B) mg/kg, individual animals, read-out: Cmax of Compound A): 57.3 ng/mL
- AUC(0-t) of Compound A [3, 5]: 37.15 ng·h/mL and 43.05 ng·h/mL
- Cmax of Compound A [3, 5]: 52.45 ng/mL and 63.23 ng/mL
- Plasma Concentration of Compound A ([4]; 0.083 hr): 192.41 ng/mL and 168.24 ng/mL
- Plasma Concentration of Compound A ([4]; 0.25 hr): 628.30 ng/mL and 538.67 ng/mL
- Plasma Concentration of Compound A ([4]; 0.5 hr): 755.39 ng/mL and 684.80 ng/mL
